# Data taken from article PMC5783947 (2018).
# What was measured:
# [1] = test system: add riboswitch aptamer (RNA, riboswitch) CAACGCUUCAUAUAAUCCUAAUGAUAUGGUUUGGGAGUUUCUACCAAGAGCCUUAAACUCUUGAUUAUGAAGUCUGUCGCUUUAUCC; assay: ACE-Scan microarray, ligand-induced duplex dissociation; conditions: 130 mM KCl, 12 mM MgCl2; 50 mM Tris, pH 7.5, 23 °C; 4 mM adenine; array-bound ACEs displaced; weaker at lower Mg2+ or 10 °C
# [2] = test system: ATP DNA aptamer (with 5' extension) (DNA, aptamer) TCACTGACCTGGGGGAGTATTGCGGAGGAAGGT; assay: solution FRET dose-response, quencher strand displacement; conditions: 300 mM NaCl, 5 mM MgCl2; 20 mM Tris, pH 8.3, 0.1% Tween-20, 22.5 °C; BHQ-2 ACEs 5'Q-2T:9, 5'Q4T:10, 5'Q4T:12:6G, 5'Q1A:15, 5'Q-5C:9 displaced
# [3] = test system: ATP RNA aptamer (RNA, aptamer) CUUGGGUUGGGAAGAAACUGUGGCACUUCGGUGCCAGCAACCCCAU; assay: ACE-Scan microarray, ligand-induced duplex dissociation; conditions: 300 mM NaCl, 5 mM MgCl2; 20 mM Tris, pH 7.6, room temperature; 10 mM ATP; array-bound ACEs displaced
binding [1],binding [2],binding [3],Structure (SMILES)
yes,–,–,Nc1ncnc2[nH]cnc12
–,yes,yes,Nc1ncnc2c1ncn2[C@@H]1O[C@H](COP(=O)(O)OP(=O)(O)OP(=O)(O)O)[C@@H](O)[C@H]1O
